Tested on: patients with advanced gastric cancer and cholangiocarcinoma
Assay: Safety assessments
Type: in vivo, human
[1] = 16 evaluable patients, 140 mg once daily

CNC(=O)n1ccc2cc(Oc3ccnc(NC(=O)c4ccc(C5CCN(CCO)CC5)cc4)c3)c(OCCOC)cc21 [Tasurgratinib]
Malaise, TEAEs All grades (140 mg once daily, N = 16): 2 (12.5) n (%)
Malaise, TEAEs Grade ≥3 (140 mg once daily, N = 16): 0 (0.0) n (%)
Malaise, TRAEs All grades (140 mg once daily, N = 16): 2 (12.5) n (%)
Malaise, TRAEs Grade ≥3 (140 mg once daily, N = 16): 0 (0.0) n (%)
Nail disorder, TEAEs All grades (140 mg once daily, N = 16): 2 (12.5) n (%)
Nail disorder, TEAEs Grade ≥3 (140 mg once daily, N = 16): 0 (0.0) n (%)
Nail disorder, TRAEs All grades (140 mg once daily, N = 16): 2 (12.5) n (%)
Nail disorder, TRAEs Grade ≥3 (140 mg once daily, N = 16): 0 (0.0) n (%)
Nasopharyngitis, TEAEs All grades (140 mg once daily, N = 16): 2 (12.5) n (%)
Nasopharyngitis, TEAEs Grade ≥3 (140 mg once daily, N = 16): 0 (0.0) n (%)
Nasopharyngitis, TRAEs All grades (140 mg once daily, N = 16): 0 (0.0) n (%)
Nasopharyngitis, TRAEs Grade ≥3 (140 mg once daily, N = 16): 0 (0.0) n (%)
PPE syndrome, TEAEs All grades (140 mg once daily, N = 16): 10 (62.5) n (%)
PPE syndrome, TEAEs Grade ≥3 (140 mg once daily, N = 16): 0 (0.0) n (%)
PPE syndrome, TRAEs All grades (140 mg once daily, N = 16): 10 (62.5) n (%)
PPE syndrome, TRAEs Grade ≥3 (140 mg once daily, N = 16): 0 (0.0) n (%)
Paronychia, TEAEs All grades (140 mg once daily, N = 16): 9 (56.3) n (%)
Paronychia, TEAEs Grade ≥3 (140 mg once daily, N = 16): 0 (0.0) n (%)
Paronychia, TRAEs All grades (140 mg once daily, N = 16): 8 (50.0) n (%)
Paronychia, TRAEs Grade ≥3 (140 mg once daily, N = 16): 0 (0.0) n (%)
Platelet count decreased, TEAEs All grades (140 mg once daily, N = 16): 2 (12.5) n (%)
Platelet count decreased, TEAEs Grade ≥3 (140 mg once daily, N = 16): 0 (0.0) n (%)
Platelet count decreased, TRAEs All grades (140 mg once daily, N = 16): 1 (6.3) n (%)
Platelet count decreased, TRAEs Grade ≥3 (140 mg once daily, N = 16): 0 (0.0) n (%)
Pruritus, TEAEs All grades (140 mg once daily, N = 16): 2 (12.5) n (%)
Pruritus, TEAEs Grade ≥3 (140 mg once daily, N = 16): 0 (0.0) n (%)
Pruritus, TRAEs All grades (140 mg once daily, N = 16): 2 (12.5) n (%)
Pruritus, TRAEs Grade ≥3 (140 mg once daily, N = 16): 0 (0.0) n (%)
Pyrexia, TEAEs All grades (140 mg once daily, N = 16): 3 (18.8) n (%)
Pyrexia, TEAEs Grade ≥3 (140 mg once daily, N = 16): 0 (0.0) n (%)
Pyrexia, TRAEs All grades (140 mg once daily, N = 16): 1 (6.3) n (%)
Pyrexia, TRAEs Grade ≥3 (140 mg once daily, N = 16): 0 (0.0) n (%)
Stomatitis, TEAEs All grades (140 mg once daily, N = 16): 6 (37.5) n (%)
Stomatitis, TEAEs Grade ≥3 (140 mg once daily, N = 16): 1 (6.3) n (%)
Stomatitis, TRAEs All grades (140 mg once daily, N = 16): 6 (37.5) n (%)
Stomatitis, TRAEs Grade ≥3 (140 mg once daily, N = 16): 0 (0.0) n (%)
Tumor pain, TEAEs All grades (140 mg once daily, N = 16): 2 (12.5) n (%)
Tumor pain, TEAEs Grade ≥3 (140 mg once daily, N = 16): 1 (6.3) n (%)
Tumor pain, TRAEs All grades (140 mg once daily, N = 16): 0 (0.0) n (%)
Tumor pain, TRAEs Grade ≥3 (140 mg once daily, N = 16): 0 (0.0) n (%)
Tumor‐associated fever, TEAEs All grades (140 mg once daily, N = 16): 2 (12.5) n (%)
Tumor‐associated fever, TEAEs Grade ≥3 (140 mg once daily, N = 16): 0 (0.0) n (%)
Tumor‐associated fever, TRAEs All grades (140 mg once daily, N = 16): 0 (0.0) n (%)
Tumor‐associated fever, TRAEs Grade ≥3 (140 mg once daily, N = 16): 0 (0.0) n (%)
Vomiting, TEAEs All grades (140 mg once daily, N = 16): 2 (12.5) n (%)
Vomiting, TEAEs Grade ≥3 (140 mg once daily, N = 16): 1 (6.3) n (%)
Vomiting, TRAEs All grades (140 mg once daily, N = 16): 0 (0.0) n (%)
Vomiting, TRAEs Grade ≥3 (140 mg once daily, N = 16): 0 (0.0) n (%)
Weight decreased, TEAEs All grades (140 mg once daily, N = 16): 2 (12.5) n (%)
Weight decreased, TEAEs Grade ≥3 (140 mg once daily, N = 16): 0 (0.0) n (%)
Weight decreased, TRAEs All grades (140 mg once daily, N = 16): 0 (0.0) n (%)
Weight decreased, TRAEs Grade ≥3 (140 mg once daily, N = 16): 0 (0.0) n (%)
any‐grade TEAE: ALT increased [1]: 18.8%
any‐grade TEAE: AST increased [1]: 25.0%
any‐grade TEAE: abdominal distension [1]: 25.0%
any‐grade TEAE: anemia [1]: 25.0%
any‐grade TEAE: blood alkaline phosphatase increased [1]: 18.8%
any‐grade TEAE: blood creatinine increased [1]: 31.3%
any‐grade TEAE: constipation [1]: 18.8%
any‐grade TEAE: decreased appetite [1]: 43.8%
any‐grade TEAE: diarrhea [1]: 37.5%
any‐grade TEAE: dry mouth [1]: 18.8%
any‐grade TEAE: dry skin [1]: 18.8%
any‐grade TEAE: dysgeusia [1]: 37.5%
any‐grade TEAE: hyperphosphatemia [1]: 100%
any‐grade TEAE: hypoalbuminemia [1]: 18.8%
any‐grade TEAE: palmar‐plantar erythrodysesthesia (PPE) syndrome [1]: 62.5%
any‐grade TEAE: paronychia [1]: 56.3%
any‐grade TEAE: pyrexia [1]: 18.8%
any‐grade TEAE: stomatitis [1]: 37.5%
any‐grade treatment‐related TEAE: ALT increased (16 patients, 140 mg once daily): 12.5%
any‐grade treatment‐related TEAE: AST increased (16 patients, 140 mg once daily): 18.8%
any‐grade treatment‐related TEAE: PPE syndrome (16 patients, 140 mg once daily): 62.5%
any‐grade treatment‐related TEAE: blood creatinine increased (16 patients, 140 mg once daily): 18.8%
any‐grade treatment‐related TEAE: decreased appetite (16 patients, 140 mg once daily): 12.5%
any‐grade treatment‐related TEAE: diarrhea (16 patients, 140 mg once daily): 25.0%
any‐grade treatment‐related TEAE: dry mouth (16 patients, 140 mg once daily): 18.8%
any‐grade treatment‐related TEAE: dry skin (16 patients, 140 mg once daily): 18.8%
any‐grade treatment‐related TEAE: dysgeusia (16 patients, 140 mg once daily): 31.3%
any‐grade treatment‐related TEAE: hyperphosphatemia (16 patients, 140 mg once daily): 100%
any‐grade treatment‐related TEAE: malaise (16 patients, 140 mg once daily): 12.5%
any‐grade treatment‐related TEAE: nail disorder (16 patients, 140 mg once daily): 12.5%
any‐grade treatment‐related TEAE: paronychia (16 patients, 140 mg once daily): 50.0%
any‐grade treatment‐related TEAE: pruritus (16 patients, 140 mg once daily): 12.5%
any‐grade treatment‐related TEAE: stomatitis (16 patients, 140 mg once daily): 37.5%
grade ≥3 treatment‐related TEAE: AST increased (16 patients, 140 mg once daily): 1 n
grade ≥3 treatment‐related TEAE: lipase increased (16 patients, 140 mg once daily): 1 n
grade ≥3 treatment‐related TEAE: retinopathy (16 patients, 140 mg once daily): 1 n
patients who experienced a TEAE of grade ≥3 (16 patients, 140 mg once daily): 68.8%
patients with treatment‐emergent SAEs (five of 16 patients, 140 mg once daily): 31.3%
total treatment‐emergent serious AEs (SAEs) reported (in five patients, 140 mg once daily): 11
eye disorder: dry eye (n = 2): 12.5%
recommended dose for subsequent phase II evaluation (once daily): 140 mg
patients with TEAEs leading to discontinuation of the study drug (one patient (cholecystitis acute and septic shock, not related)): 6.3%
patients with dose reductions due to treatment‐related TEAEs (six of 16 patients): 37.5%
patients with eye disorder events (thirteen events in seven patients): 43.8%
patients who experienced grade ≥3 treatment‐related TEAEs (two of 16 patients, 140 mg once daily): 12.5%

Source: article PMC11711049 (Cancer Science, 2024)
